Test results: patent US20250230193A1, “CYCLIC COMPOUND HAVING SELECTIVE KRAS INHIBITORY EFFECT ON HRAS AND NRAS” (CHUGAI SEIYAKU KABUSHIKI KAISHA, priority 2022, published 2025)

Columns and labels:
[1] = molecular target: GDP-bound NRAS wild-type protein (Homo sapiens, UniProt P01111); assay: Binding to NRAS by surface plasmon resonance (SPR), Single Cycle Kinetics; settings: SPR; KD ratio class
[2] = molecular target: GDP-bound HRAS wild-type protein (Homo sapiens, UniProt P01112); assay: Binding to HRAS by surface plasmon resonance (SPR), Single Cycle Kinetics; settings: SPR; KD ratio class
GDP-bound HRAS wild-type protein, sequence (P01112 whole entry): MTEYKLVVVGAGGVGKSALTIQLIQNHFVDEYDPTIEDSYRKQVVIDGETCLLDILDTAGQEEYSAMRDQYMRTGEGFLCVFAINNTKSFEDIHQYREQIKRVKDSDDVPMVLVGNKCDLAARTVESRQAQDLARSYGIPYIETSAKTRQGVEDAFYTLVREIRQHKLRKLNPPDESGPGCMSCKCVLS

[3] = test system: human lung cancer strain NCI-H441; assay: cells; settings: NCI-H441, 96 h, read-out: NCI-H441 IC50 (nM)

GDP-bound NRAS wild-type protein, sequence (P01111 whole entry): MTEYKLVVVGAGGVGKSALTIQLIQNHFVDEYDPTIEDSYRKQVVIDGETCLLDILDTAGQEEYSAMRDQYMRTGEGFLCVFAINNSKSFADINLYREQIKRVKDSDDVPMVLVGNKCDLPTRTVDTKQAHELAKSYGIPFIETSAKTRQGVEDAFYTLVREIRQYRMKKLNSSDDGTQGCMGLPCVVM

Row | SMILES | NRAS/KRAS (ratio of KD value for GDP-bound NRAS wild-type protein to KD value for KRAS) [1] | HRAS/KRAS (ratio of KD value for GDP-bound HRAS wild-type protein to KD value for KRAS) [2] | IC50 [3] [nM]
1 | CCO[C@@H]1C[C@H]2C(=O)NC3(CCC3)C(=O)N(C)[C@@H](C3CCCC3)C(=O)N(C)[C@H](C(=O)N(C)C)CC(=O)N(C)[C@@H](CC)C(=O)N[C@@H]([C@@H](C)CC)C(=O)N(C)CC(=O)N(C)[C@H]3C/C=C\CCN(C3=O)[C@@H](Cc3ccc(C(F)(F)F)cc3)C(=O)N(C)CC(=O)N[C@@H](CCc3ccc4sccc4c3)C(=O)N2C1 [PP1255] | A (a compound having 10 or more and less than 20 is denoted as A) | A (a compound having 10 or more and less than 20 is denoted as A) | 156
2 | CC[C@H](C)[C@@H]1NC(=O)[C@H](CC2CC2)N(C)C(=O)C[C@@H](C(=O)N(C)CC)N(C)C(=O)[C@H](C2CCCC2)N(C)C(=O)C2(CC(C)(C)C2)NC(=O)[C@@H]2C[C@@H](F)CN2C(=O)[C@H](CCc2cc(F)c(C(F)(F)F)c(F)c2)NC(=O)CN(C)C(=O)[C@H](Cc2ccc(C(F)(F)F)cc2)N2CC/C=C\C[C@@H](C2=O)N(C)C(=O)CN(C)C1=O [PP1570] | AA (a compound having 20 or more is denoted as AA) | A (a compound having 10 or more and less than 20 is denoted as A) | 2.6
3 | CCO[C@@H]1C[C@H]2C(=O)NC3(CCC3)C(=O)N(C)[C@@H](C3CCCC3)C(=O)N(C)[C@H](C(=O)N(C)C)CC(=O)N(C)[C@@H](CC)C(=O)N[C@@H]([C@@H](C)CC)C(=O)N(C)CC(=O)N(C)[C@H]3C/C=C\CCN(C3=O)[C@@H](Cc3ccc(C(F)(F)F)cc3)C(=O)N(C)CC(=O)N[C@@H](CCc3ccc(C(F)(F)F)c(C)c3)C(=O)N2C1 [PP1265] | A (a compound having 10 or more and less than 20 is denoted as A) | B (a compound having 3 or more and less than 10 is denoted as B) | 14.1
4 | CCO[C@@H]1C[C@H]2C(=O)NC3(CCC3)C(=O)N(C)[C@@H](C(CC)CC)C(=O)N(C)[C@H](C(=O)N(C)C)CC(=O)N(C)[C@@H](CC3CC3)C(=O)N[C@@H]([C@@H](C)CC)C(=O)N(C)CC(=O)N(C)[C@H]3C/C=C\CCN(C3=O)[C@@H](Cc3ccc(F)cc3C)C(=O)N(C)CC(=O)N[C@@H](CCc3cc(F)c(C(F)(F)F)c(F)c3)C(=O)N2C1 [PP1514] | A (a compound having 10 or more and less than 20 is denoted as A) | A (a compound having 10 or more and less than 20 is denoted as A) | 72.7
5 | CC[C@H](C)[C@@H]1NC(=O)[C@H](CC)N(C)C(=O)C[C@@H](C(=O)N(C)C)N(C)C(=O)[C@H](C2CCCC2)N(C)C(=O)C2(CCCC2)NC(=O)[C@@H]2CCCN2C(=O)[C@H](CCc2cc(F)c(C(F)(F)F)c(F)c2)NC(=O)CN(C)C(=O)[C@H](Cc2ccc(C(F)(F)F)cc2)N2C[C@H](C)CC[C@@H](C2=O)N(C)C(=O)CN(C)C1=O [PP1382] | B (a compound having 3 or more and less than 10 is denoted as B) | B (a compound having 3 or more and less than 10 is denoted as B) | 15.8
6 | CCO[C@@H]1C[C@H]2C(=O)NC3(CCC3)C(=O)N(C)[C@@H](C3CCCC3)C(=O)N(C)[C@H](C(=O)N3CCOCC3)CC(=O)N(C)[C@@H](CC3CCC3)C(=O)N[C@@H]([C@@H](C)CC)C(=O)N(C)CC(=O)N(C)[C@H]3C/C=C\CCN(C3=O)[C@@H](Cc3ccc(C)cc3)C(=O)N(C)CC(=O)N[C@@H](CCc3cc(F)c(C(F)(F)F)c(F)c3)C(=O)N2C1 [PP1424] | A (a compound having 10 or more and less than 20 is denoted as A) | A (a compound having 10 or more and less than 20 is denoted as A) | 26.3
7 | CCO[C@@H]1C[C@H]2C(=O)NC3(CCC3)C(=O)N(C)[C@@H](C(CC)CC)C(=O)N(C)[C@H](C(=O)N3CCCC3)CC(=O)N(C)[C@@H](COC)C(=O)N[C@@H]([C@@H](C)CC)C(=O)N(C)CC(=O)N(C)[C@H]3C/C=C\CCN(C3=O)[C@@H](CC3CCCCC3)C(=O)N(C)CC(=O)N[C@@H](CCc3cc(F)c(C(F)(F)F)c(F)c3)C(=O)N2C1 [PP1438] | AA (a compound having 20 or more is denoted as AA) | A (a compound having 10 or more and less than 20 is denoted as A) | 89.4
8 | CCO[C@@H]1C[C@H]2C(=O)NC3(CCC3)C(=O)N(C)[C@@H](C3CCCC3)C(=O)N(C)[C@H](C(=O)N(C)C)CC(=O)N(C)[C@@H](CC(C)C)C(=O)N[C@@H]([C@@H](C)CC)C(=O)N(C)CC(=O)N(C)[C@H]3C/C=C\CCN(C3=O)[C@@H](Cc3ccc(F)cc3)C(=O)N(C)CC(=O)N[C@@H](CCc3ccc4sccc4c3)C(=O)N2C1 [PP1427] | A (a compound having 10 or more and less than 20 is denoted as A) | B (a compound having 3 or more and less than 10 is denoted as B) | 465
9 | CCO[C@@H]1C[C@H]2C(=O)NC3(CCC3)C(=O)N(C)[C@@H](C3CCCC3)C(=O)N(C)[C@H](C)CC(=O)N(C)[C@@H](CC3CC3)C(=O)N[C@@H]([C@@H](C)CC)C(=O)N(C)CC(=O)N(C)[C@H]3C/C=C\CCN(C3=O)[C@@H](Cc3ccc(C)cc3)C(=O)N(C)CC(=O)N[C@@H](CCc3cc(F)c(C(F)(F)F)c(F)c3)C(=O)N2C1 [PP1410] | B (a compound having 3 or more and less than 10 is denoted as B) | B (a compound having 3 or more and less than 10 is denoted as B) | 51
10 | CCO[C@@H]1C[C@H]2C(=O)NC3(CCC3)C(=O)N(C)[C@@H](C3CCCC3)C(=O)N(C)[C@H](C(=O)N(C)C)CC(=O)N(C)[C@@H](CC(C)C)C(=O)N[C@@H]([C@@H](C)CC)C(=O)N(C)CC(=O)N(C)[C@H]3C/C=C\CCN(C3=O)[C@@H](Cc3ccc(C(F)(F)F)cc3)C(=O)N(C)CC(=O)N[C@@H](CCc3ccc(Cl)c(Cl)c3)C(=O)N2C1 [PP1251] | AA (a compound having 20 or more is denoted as AA) | A (a compound having 10 or more and less than 20 is denoted as A) | 10.2
11 | CC[C@H](C)[C@@H]1NC(=O)[C@H](CC2CC2)N(C)C(=O)C[C@@H](C(=O)N2CCCC2)N(C)C(=O)[C@H](C2CCCC2)N(C)C(=O)C2(CCCC2)NC(=O)[C@@H]2C[C@@H](C(F)(F)F)CN2C(=O)[C@H](CCc2cc(F)c(C(F)(F)F)c(F)c2)NC(=O)CN(C)C(=O)[C@H](Cc2ccc(C(F)(F)F)cc2)N2CC/C=C\C[C@@H](C2=O)N(C)C(=O)CN(C)C1=O [PP1506] | AA (a compound having 20 or more is denoted as AA) | A (a compound having 10 or more and less than 20 is denoted as A) | 73.4
12 | CCO[C@@H]1C[C@H]2C(=O)NC3(CCC3)C(=O)N(C)[C@@H](C3CCCC3)C(=O)N(C)[C@H](C(=O)N(C)C)CC(=O)N(C)[C@@H](CC3CCCC3)C(=O)N[C@@H]([C@@H](C)CC)C(=O)N(C)CC(=O)N(C)[C@H]3C/C=C\CCN(C3=O)[C@@H](Cc3ccc(C)cc3)C(=O)N(C)CC(=O)N[C@@H](CCc3ccc(Cl)c(Cl)c3)C(=O)N2C1 [PP1487] | A (a compound having 10 or more and less than 20 is denoted as A) | A (a compound having 10 or more and less than 20 is denoted as A) | 46.6
13 | CC[C@H](C)[C@@H]1NC(=O)[C@H](CC2CCCC2)N(C)C(=O)C[C@@H](C(=O)N(C)C)N(C)C(=O)[C@H](C2CCCC2)N(C)C(=O)C2(CCC2)NC(=O)[C@@H]2C[C@@H](C(F)(F)F)CN2C(=O)[C@H](CCc2cc(F)c(C(F)(F)F)c(F)c2)NC(=O)CN(C)C(=O)[C@H](Cc2ccc(F)cc2)N2CC/C=C\C[C@@H](C2=O)N(C)C(=O)CN(C)C1=O [PP1508] | A (a compound having 10 or more and less than 20 is denoted as A) | A (a compound having 10 or more and less than 20 is denoted as A) | 28.1
14 | CCO[C@@H]1C[C@H]2C(=O)NC3(CCC3)C(=O)N(C)[C@@H](C3CCCC3)C(=O)N(C)[C@H](C(=O)N3CCOCC3)CC(=O)N(C)[C@@H](CC3CC3)C(=O)N[C@@H]([C@@H](C)CC)C(=O)N(C)CC(=O)N(C)[C@H]3C/C=C\CCN(C3=O)[C@@H](Cc3ccc(F)cc3C)C(=O)N(C)CC(=O)N[C@@H](CCc3cc(F)c(C(F)(F)F)c(F)c3)C(=O)N2C1 [PP1495] | A (a compound having 10 or more and less than 20 is denoted as A) | B (a compound having 3 or more and less than 10 is denoted as B) | 98.7
15 | CCO[C@@H]1C[C@H]2C(=O)NC3(CCC3)C(=O)N(C)[C@@H](C(CC)CC)C(=O)N(C)[C@H](C(=O)N(C)C)CC(=O)N(C)[C@@H](COC)C(=O)N[C@@H]([C@@H](C)CC)C(=O)N(C)CC(=O)N(C)[C@H]3C/C=C\CCN(C3=O)[C@@H](Cc3ccc(C(F)(F)F)cc3)C(=O)N(C)CC(=O)N[C@@H](CCc3cc(F)c(C(F)(F)F)c(F)c3)C(=O)N2C1 [PP1205] | AA (a compound having 20 or more is denoted as AA) | A (a compound having 10 or more and less than 20 is denoted as A) | 25.4
